Laboratory results as given in US7491849B2, “Oligoamine compounds and derivatives thereof for cancer therapy” (priority 2001, dated 2009).

What was measured:
Calf-thymus DNA = Calf-thymus DNA aggregation (absorbance at 320 nm); type: biochemical; conditions: 50 mM NaCl, 1 mM Na-cacodylate pH 7.0
Experimental: Calf-thymus DNA aggregation by spermine and oligoamines.
Test for DNA Aggregation: DNA aggregation was studied using a Perkin-Elmer Lambda 25 UV/visible spectrophotometer connected to a PTP 6 heating unit using a previously published procedure (see Basu, H S and Marton, L J, “The interaction of spermine and pentamines with DNA,” Biochemical Journal 244:243-246 (1987)). Aggregation was determined in 50 mM NaCl, 1 mM Na-cacodylate pH 7.0 buffer by observing the increase in DNA absorbance (approximately 0.5 A260 units) at 320 nm.

LnCap = assay: MTT assay, tumor cell growth, LnCap; type: cell-based; conditions: 6 days incubation, read-out: ID50 (μM) values for Human Tumor Cell Lines, LnCap
Experimental: (§1) Effect of Saturated Oligoamines on Human Prostate Tumor Cell Growth by the MTT assay. Saturated oligoamines inhibited prostate cancer cell growth in vitro. DU-145 cells were most sensitive and PC-3 cells were less sensitive to the effects of oligoamines. In general, ID50 values of less than 0.5 μM were obtained (Table 2). Even though the PC-3 cells were relatively more resistant to the oligoamines, at a 5 μM concentration the oligoamines reduced the cell number to less than 1% of the control on day 6 of incubation. Tissue cultures and the MTT assay were performed as follows.
(§2) Tissue Culture. Cells were seeded into 75 cm^2 culture flasks with 15 ml of Eagle's minimal essential medium supplemented with 10% fetal calf serum and nonessential amino acids. The flasks were incubated in a humidified 95% air/5% CO2 atmosphere. The cells were grown for at least 24 h to ensure that they are in the log phase of growth and then they were treated with the oligoamines. Cells were harvested by treatment for 5 min with STV (saline A, 0.05% trypsin, 0.02% EDTA) at 37° C. The flasks were rapped on the lab bench, pipetted several times and aliquots of cell suspension were withdrawn and counted using a Coulter particle counter that has been standardized for counting each cell line using a hemacytometer.
(§3) MTT Assay: Trypsinized cell suspensions were diluted to seed 80 μl suspensions containing 500 cells in each well of a 96 well Corning microtiter plate and incubated overnight at 37° C. in a humidified incubator in 5% CO2. 20 μl of appropriately diluted stock solution of each drug were added to the middle 8 columns of cell suspension in the microtiter plates. Each drug concentration was run in quadruplicate. Outer columns of the plates were used for buffer controls. Cells were incubated with the drug for 6 days at 37° C. in 5% CO2/H2O atmosphere. 25 μl of 5 mg/ml solution of 3-(4,5-dimethylthiazol-2-yl)-2,5-diphenyl tetrazolium bromide (MTT) were added to each well and incubated for 4 hours at 37° C. in 5% CO2/H2O incubator. Cells were lysed by incubating overnight with 100 μl lysis buffer (500 ml of the lysis buffer contains: 100 g lauryl sulfate (SDS), 250 ml of N,N-dimethylformamide, and 2 ml of glacial acetic acid, made up to volume with water; pH 4.8).
(§4) The color was monitored at room temperature at 570 nm in a E-max Precision Microplate Reader (Molecular Devices Corporation, Sunnyvale, Calif.) and data was analyzed using cell survival software supplied by Molecular Devices Corporation.

DU145 = assay: MTT assay, tumor cell growth, DU145; type: cell-based; conditions: 6 days incubation, read-out: ID50 (μM) values for Human Tumor Cell Lines, DU145
Experimental: as §1, §2, §3, §4

PC-3 = assay: MTT assay, tumor cell growth, PC-3; type: cell-based; conditions: 6 days incubation, read-out: ID50 (μM) values for Human Tumor Cell Lines, PC-3
Experimental: as §1, §2, §3, §4

PC-3 Cells = assay: Colony forming assay (CFE), PC-3 cells; type: cell-based; conditions: ca. 1.5-2 μM, 5 days incubation, FIG. 2
Experimental: Assessment of Oligoamine Cytotoxicity by Colony Forming Assay. The cytotoxicity of the oligoamines was further assayed by the colony forming assay (CFE). Four saturated oligoamines were chosen for their ability to kill DuPro cells after 5 days of incubation. Oligoamines SL-11159, SL-11175 and SL-11226 had over 4 logs of cell kill on day 5 of treatment at 1-2 μM concentrations; see FIG. 1. […] The colony forming assay was performed as follows.
Colony Forming Efficiency Assay. All cell lines used in this assay have already been optimized with respect to the number of feeder cells and length of incubation time for observable colony formation. Cells were washed, harvested, and replated in quadruplicate at appropriate dilution into 60 mm plastic Petri dishes. The Petri dishes were prepared not more than 24 hr in advance with 4 ml of supplemented Eagle's minimum essential medium containing 5-10% fetal bovine serum (standardized for each cell line) for all cell lines. Cells were incubated for the previously standardized number of days in a 95% air/5% CO2 atmosphere. The plates were stained with 0.125% crystal violet in methanol and counted. Results are expressed as the surviving fraction of an appropriate control.

| SMILES | Conc. (μM) at the start of DNA Aggregation (Calf-thymus DNA) | IC50 (LnCap) | IC50 (DU145) | IC50 (PC-3) | logs of cells killed (colony survival) (PC-3 Cells) |
| --- | --- | --- | --- | --- | --- |
| CCNCCCCNCCCCNCCCCNCCCCNCCCCNCCCCNCCCCNCCCCNCCCCNCC.Cl.Cl.Cl.Cl.Cl.Cl.Cl.Cl.Cl.Cl [SL-11159] | 2.5 µM | 0.25 µM | 0.15 µM | 0.6 µM | four |
| CCNCCCCNCCCCNCCCCNCCCCNCCCCNCCCCNCCCCNCCCCNCCCCNCCCCNCCCCNCC.Cl.Cl.Cl.Cl.Cl.Cl.Cl.Cl.Cl.Cl.Cl.Cl [SL-11226] | 2.2 µM | 0.15 µM | 0.08 µM | 0.14 µM | – |
